Measurements: US7189754B2, “Pyrrolidine ester derivatives with oxytocin modulating activity” (Applied Research Systems ARS Holding NV, priority 2001, dated 2007)

Target: T1, ratOT-R (Rattus norvegicus, UniProt P70536)
T1 construct: expressed in transfected cells; host or cells: HEK/EBNA
T1 sequence (P70536 1-388): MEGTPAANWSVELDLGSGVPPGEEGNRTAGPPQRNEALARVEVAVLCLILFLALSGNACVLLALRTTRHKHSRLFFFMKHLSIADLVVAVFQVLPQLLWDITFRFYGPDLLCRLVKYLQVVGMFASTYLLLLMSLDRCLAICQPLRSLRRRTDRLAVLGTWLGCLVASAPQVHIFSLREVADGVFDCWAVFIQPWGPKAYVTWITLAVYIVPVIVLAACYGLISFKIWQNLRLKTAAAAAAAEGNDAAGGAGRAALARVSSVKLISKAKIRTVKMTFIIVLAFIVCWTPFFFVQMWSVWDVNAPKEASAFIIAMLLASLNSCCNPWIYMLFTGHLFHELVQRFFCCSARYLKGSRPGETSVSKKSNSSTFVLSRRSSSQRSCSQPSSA
Assay: Functional assay No. 2: inhibition of IP3-synthesis in HEK/EBNA-OTR cells
Format: cell-based
Conditions: oxytocin 10 nM, [3H]-inositol
Text: c) Functional Assay No. 2: Inhibition of IP3 (Inositol Tri-Phosphate)-Synthesis in HEK/EBNA-OTR cells
The interaction of OT on the OT-receptor leads to the IP3 synthesis, IP3 being a second messenger for the Ca^2+ release from sarcoplasmic reticulum, involved in the uterine contraction triggering process (see Mitchell, B. F. and Schmid, B. J. Soc. Gynecol. Invest. 2001, 8,122–33).
This assay can be used to show the inhibition of the OT/OT-R mediated IP3 synthesis by using test compounds of formula (I).
Stimulation of the cells: HEK/EBNA OTR (rat or human) cells are plated out-into costar 12-well plates, and equilibrated for 15–24 h with 4 μCi/ml radiolabelled [^3H]-Inositol with 1% FCS (0.5 ml/well) and without inositol supplement. The medium containing the label is aspirated. […]
The amount of the radiolabelled IP3 may be determined through the ensuing work-up. […]
Elution of total IP's: Elution is achieved using 3 ml 1M ammonium formate/0.1M formic acid. […] The amount of [^3H]-IP3 is determined by a scintillating counter.
The ability of compounds of formula(I) to effectively antagonize oxytocin-induced IP3synthesis mediated by the oxytocin receptor, can be assessed using the above described in vitro biological assay.

Row | IC50 [nM] | SMILES
1 | 23 | CO/N=C1/C[C@@H](C(=O)OC)N(C(=O)c2ccc(-c3ccccc3C)cc2)C1 [Methyl (2S,4Z)-4-(methoxyimino)-1-[(2′-methyl[1,1′-biphenyl]-4-yl)carbonyl]-2-pyrrolidinecarboxylate]
2 | 77 | CO/N=C1\C[C@@H](C(=O)OC)N(C(=O)c2ccc(-c3ccccc3C)cc2)C1 [Methyl (2S,4E)-4-(methoxyimino)-1-[(2′-methyl[1,1′-biphenyl]-4-yl)carbonyl]-2-pyrrolidinecarboxylate]
